# Assay results reported in US20240240189A1, “CANCER TREATMENT BY TARGETING PROTEINS OR INTERACTIONS OF EPHRINB-RGS3-KIF20A-SEPT7 AXIS” (CITY OF HOPE, priority 2021, published 2024).
# Entries after “also recorded” stand apart in the source; their conditions may differ.
# Columns and labels:
# KIF20A = KIF20A knockdown in GISC017 cells by lentiviral shRNA; type: cell-based, human; settings: constitutive lentiviral expression, vs scrambled shRNA
# Text: (§1) To further investigate the relevance of KIF20A in human brain tumors, inhibition of KIF20A in patient-derived GBM-initiating/stem cells (GISCs) was examined. As the ERKS axis functions in different types of brain tumor-initiating/stem cells, data obtained from study of GISCs would be applicable to other brain tumor cell types. Multiple lines of patient-derived GISCs were obtained from Dr. Christine Brown. These low passaged GISCs could be expanded in cultures and could engraft in NSG mice^43, 44. FIG. 11 summarizes the results of testing KIF20A in one GISC line (GISC017) by constitutive expression of a control scrambled shRNA or shKIF20A726 (shRNA targeting hKIF20A) in pNUT vector-based lentiviral expression system. […] In the above cell cycle exit analysis, co-staining of differentiation markers (e.g. βlll-tubulin, DCX, or NeuN) was performed, however, these markers were detected in EdU^+Ki67^− (cells having left the cell cycle) but also in some EdU^+Ki67^+ (cells staying in the cell cycle) cells, which might reflect a technical artefact observed with progenitor/stem cells in culture. […]
# GISC017 cells [1] = assay: Cell growth of GISC017 cells; type: cell-based, human; settings: vs scrambled shRNA
# Text: as §1
# GISC017 cells [2] = assay: Flow cytometry-based cell cycle analysis (4N DNA content) of GISC017 cells; design: species or system human; settings: vs scrambled shRNA
# Text: as §1
# Daoy human MB cells = assay: Growth assay of Daoy cells; type: cell-based; settings: three Daoy clones, inducible expression of shKIF20A726 (+Dox)
# Procedure: Generation of Daoy cell lines with stably integrated Tet-on inducible shRNA expression system: Daoy cells were infected with lentivirus of Tet-on inducible human KIF20A shRNA-726 and GFP-Luciferase prepared from Tet-pLKO-hushKIF20A726 plasmid and Hiv7CMVGFP-IRES-Luciferase plasmid, respectively. The transduced Daoy cells were selected for stable single clones with Puromycin (1 μg/ml, Sigma-Aldrich) and GFP fluorescence signal in DMEM (Invitrogen) with 10% fetal bovine serum. Single clones were picked up by glass cloning cylinders (Sigma-Aldrich) in 10 cm plate.
# Growth Assay of tumor cells: Mouse MB cell lines, or Daoy clones stably integrated with Tet-on inducible human KIF20A shRNA-726, or Wild Type Daoy cells, were seeded into multiple wells of 24 well plates (2×10^4 or 1×10^4 cells per well). Cells in quadruplicate were then dissociated and counted using a hemocytometer at consecutive days after initial plating.
# GISC017 cells [3] = assay: Cell cycle exit analysis (EdU/Ki67) in GISC017 cells; type: cell-based, human; settings: shRNA expression vs scrambled shRNA
# Text: as §1
substance,measurement,setting,value
"5′-GAGGAGTGTCTACATCGAA-TTCAAGAGA-TTCGATGTAGACACTCCTC-3′ (GAGGAGTGTCTACATCGAATTCAAGAGATTCGATGTAGACACTCCTC; hairpin, further chemistry not given here) [shKIF20A726, shRNA targeting human KIF20A transcript]",KIF20A level,KIF20A,strongly knocked down KIF20A level; also recorded: significant knockdown of KIF20A expression
same,cell growth rate,GISC017 cells [1],slower cell growth rate; also recorded: inhibited cell growth
same,4N DNA contents / cytokinesis,GISC017 cells [2],comparable; also recorded: did not cause obvious change in cytokinesis
same,cell proliferation,Daoy human MB cells,significantly inhibit the proliferation of all three clones; also recorded: inhibit cell proliferation
same,cell cycle exit (EdU+Ki67− cells),GISC017 cells [3],more cells exiting the cell cycle; also recorded: increase of GFP+EdU+Ki67− cells
